# Experiment: solvent given as SMILES
smiles,measurement,setting,value
C(#Cc1ccccc1)C(C#Cc1ccccc1)=Cc1ccccc1,absorption maximum,in ClC(Cl)Cl,340 nm
Cc1cccc2nc(-c3ccc(-c4cc(=O)cc(-c5ccccc5)o4)cc3)c(NC3CCCCC3)n12,absorption maximum,in ClCCl,356 nm
Cc1cc(C)c(B(c2c(C)cc(C)cc2C)c2cc3cc(N(C)C)c4ccccc4c3c3c2ccc2ccccc23)c(C)c1,absorption maximum,in C1CCCCC1,430 nm
same,absorption maximum,in C1CCOC1,431 nm
same,absorption maximum,in CC#N,429 nm
same,absorption maximum,in ClC(Cl)Cl,431 nm
same,absorption maximum,in c1ccccc1,433 nm
F[B-]1(F)n2c(ccc2-c2cccs2)C(C(F)(F)F)=C2C=CC(c3cccs3)=[N+]21,absorption maximum,in CCCCCC,665 nm
N#Cc1cc(-n2c3ccccc3c3cc(Br)ccc32)c(-n2c3ccccc3c3cc(Br)ccc32)cc1C#N,absorption maximum,in C1CCOC1,366 nm
COc1cc(-c2ncc(-c3ccncc3)o2)cc(OC)c1OC,absorption maximum,in ClCCl,326 nm
CC1(C)C(/C=C/C2=C(c3ccc(C(=O)O)cc3)C(=C/C=C3/N(CCCCS(=O)(=O)[O-])c4ccccc4C3(C)C)/CCC2)=[N+](CCCCS(=O)(=O)[O-])c2ccccc21,absorption maximum,in CO,765 nm
CCc1nc2c(nc1CC)C(c1ccccc1)=[N+]1C2=Nc2c3nc(CC)c(CC)nc3c(-c3ccccc3)n2[B-]1(F)F,absorption maximum,in C1CCOC1,685 nm
CCOC(=O)/N=c1/oc2ccc(OC)cc2cc1C#N,absorption maximum,in ClCCl,388 nm
CCCCOc1c(C=C2N(C)c3ccccc3C2(C)C)c(=O)c1=O,absorption maximum,in CCO,425 nm
COc1ccc(C#Cc2ccc(C#Cc3ccc(P(=O)(c4ccc(C#Cc5ccc(C#Cc6ccc(OC)cc6)cc5)cc4)c4ccc(C#Cc5ccc(C#Cc6ccc(OC)cc6)cc5)cc4)cc3)cc2)cc1,absorption maximum,in C1CCCCC1,335 nm
same,absorption maximum,in C1COCCO1,336 nm
same,absorption maximum,in CC#N,334 nm
same,absorption maximum,in CCO,336 nm
same,absorption maximum,in CS(C)=O,338 nm
same,absorption maximum,in ClC(Cl)Cl,338 nm
same,absorption maximum,in ClCCl,338 nm
COc1ccc2c(c1)[n+]([O-])nc(N)[n+]2[O-],absorption maximum,in CC#N,432 nm
same,absorption maximum,in O,440 nm
O=c1c2ccccc2c2c3c(cccc13)c(-c1ccccc1)c1c3cccc4cccc(c43)c12,absorption maximum,in CC#N,462 nm
same,absorption maximum,in CO,461 nm
N#Cc1c(N2CCCCC2)cc(-c2ccc(-c3ccccc3)s2)c2c1CCc1ccccc1-2,absorption maximum,in C1CCOC1,345 nm
CN(C)c1ccc(-n2c(-c3ccncc3)nc3ccccc32)cc1,absorption maximum,in CC#N,299 nm
c1cc2ccc1-c1ccc(cc1)-c1ccc([se]1)-c1ccc(cc1)-c1ccc(cc1)-c1ccc([se]1)-c1ccc(cc1)-c1ccc(cc1)-c1ccc([se]1)-c1ccc(cc1)-c1ccc(cc1)-c1ccc-2[se]1,absorption maximum,in C1CCOC1,370 nm
CCOC(=O)C1=CNC=C(C(=O)OCC)C1c1ccccc1,absorption maximum,in C1CCOC1,355 nm
same,absorption maximum,in CO,355 nm
COc1ccc(/C=C/C2=CC(/C=C/c3ccc(OC)cc3)=[N+]3C2=C(c2ccc(-c4ccc5ccccc5n4)s2)c2c(/C=C/c4ccc(OC)cc4)cc(/C=C/c4ccc(OC)cc4)n2[B-]3(F)F)cc1,absorption maximum,in C1COCCO1,708 nm
Cc1ccc2nc3c(=O)[nH]c(=O)[nH]c3nc2c1C,absorption maximum,in CC#N,375 nm
FC(F)(F)c1ccc(-c2ncc3ccccn23)cc1,absorption maximum,in ClC(Cl)Cl,340 nm
CCCCCCN1C(=O)c2cccc3c(-c4ccc(-c5cc(-c6ccc(C)cc6)n(-c6ccccc6)n5)s4)ccc(c23)C1=O,absorption maximum,in ClCCl,402 nm
COC(=O)/C=C/c1sc(-c2ccc(N(C)C)s2)c(-c2ccsc2)c1N,absorption maximum,in CC#N,472 nm
COc1cc(C(=O)c2c(C)c3ccc4cccc5c6cccc7ccc2c(c76)c3c45)cc(OC)c1OC,absorption maximum,in ClCCl,391 nm
COc1ccc(-c2ccc(-c3ccc(F)cc3)cc2)cc1,absorption maximum,in C1COCCO1,291 nm
COc1ccc(-c2cnc(/C=C/c3ccc(C#N)cc3)o2)cc1OC,absorption maximum,in ClCCl,370 nm
c1ccc(N(c2ccccc2)c2ccc(-c3ncnc4ccccc34)cc2)cc1,absorption maximum,in ClCCl,380 nm
O=c1oc2ccccc2cc1/C=C/c1ccccc1,absorption maximum,in CC#N,351 nm
CC(=O)N(Cc1ccccn1)c1c2ccccc2c2c3c(cccc13)C(=O)N(Cc1ccccn1)C2=O,absorption maximum,in C1CCOC1,436 nm
same,absorption maximum,in CCCCCC,432 nm
same,absorption maximum,in CCO,437 nm
same,absorption maximum,in Cc1ccccc1,437 nm
same,absorption maximum,in ClCCl,439 nm
Cc1ccc(C(=O)NC(C)(C)C)c2c1ccc1c3ccccc3c3ccccc3c12,absorption maximum,in ClCCl,335 nm
CCCCCCc1cc2c(=O)c3cc(CCCCCC)cc4c(=O)c5cc(CCCCCC)cc6c(=O)c(c1)c2n(c34)c65,absorption maximum,in ClCCl,424 nm
C1=Nc2cccc3cccc(c23)N1,absorption maximum,in CC#N,329 nm
same,absorption maximum,in CO,329 nm
same,absorption maximum,in CS(C)=O,333 nm
same,absorption maximum,in Cc1ccccc1,331 nm
CCN(CC)c1ccc2c(c1)oc(=O)c1cc3c(-c4ccccc4)nn(C)c3nc12,absorption maximum,in ClCCl,350 nm
CN(C)c1ccc(C#CC2=C3CCc4ccccc4C3=[O+][B-](F)(F)O2)cc1,absorption maximum,in ClCCl,514 nm
CCCCCCOC(=O)/C=C/C1=CC2=C(c3c(C)cc(C)cc3C)c3cc(/C=C/C(=O)OCCCCCC)cn3[B-](F)(F)[N+]2=C1,absorption maximum,in ClCCl,579 nm
Cc1nc2c(ccc3c2sc(/C=C/C=C/c2ccc(N(C)C)cc2)[n+]3C)s1,absorption maximum,in CO,574 nm
same,absorption maximum,in ClC(Cl)Cl,617 nm
CCCC1=Cc2nc1ccc1[nH]c(cc1CCO)c1nc(ccc3[nH]c2cc3CCC)C(CCO)=C1,absorption maximum,in Cc1ccccc1,638 nm
CCC[n+]1ccc(/C=C/c2ccc(N(C)C)cc2)cc1,absorption maximum,in C1COCCO1,463 nm
same,absorption maximum,in CC(C)O,485 nm
same,absorption maximum,in CCCCO,490 nm
same,absorption maximum,in CCCO,487 nm
same,absorption maximum,in CCO,484 nm
same,absorption maximum,in CO,479 nm
same,absorption maximum,in CS(C)=O,476 nm
same,absorption maximum,in ClC(Cl)Cl,496 nm
same,absorption maximum,in ClCCl,513 nm
same,absorption maximum,in c1ccccc1,477 nm
CCc1cccc(CC)c1-c1c2ccccc2c(C#Cc2ccccc2)c2cc3ccccc3cc12,absorption maximum,in ClCCl,523 nm
CCCCCCn1c2cc(/C=C/c3ccccc3)ccc2c2ccc(/C=C/c3ccccc3)cc21,absorption maximum,in ClC(Cl)Cl,390.62 nm
CCN(CC)c1ccc(/C=N/c2cc3nc4ccccc4nc3cc2/N=C/c2ccc(N(CC)CC)cc2O)c(O)c1,absorption maximum,in CC#N,451 nm
same,absorption maximum,in CN(C)C=O,488 nm
same,absorption maximum,in ClCCl,476 nm
CN(C)c1ccc(-c2ccc(-c3cc(N4CCCCC4)c(C#N)c4c3-c3ccccc3CC4)cc2)cc1,absorption maximum,in C1CCCCC1,353 nm
same,absorption maximum,in C1CCOC1,342 nm
same,absorption maximum,in CN(C)C=O,350 nm
same,absorption maximum,in CS(C)=O,342 nm
same,absorption maximum,in Cc1ccccc1,360 nm
same,absorption maximum,in ClC(Cl)Cl,348 nm
COc1ccc(-c2nc(-c3cccc(OC)c3)[nH]c2-c2ccc(OC)cc2)cc1,absorption maximum,in CO,300 nm
CCOC(=O)c1c(-c2cc3ccccc3oc2=O)nn(-c2ccc(C)c(C)c2)c1C(=O)OCC,absorption maximum,in ClCCl,322 nm
CN(C)c1ccc(/C=C/c2nc3ccccc3s2)cc1,absorption maximum,in C1CCCCC1,384 nm
same,absorption maximum,in C1CCOC1,396 nm
same,absorption maximum,in C1COCCO1,393 nm
same,absorption maximum,in CC#N,401 nm
same,absorption maximum,in CC(C)O,394 nm
same,absorption maximum,in CCCCCC,384 nm
same,absorption maximum,in CCCCCCC,387 nm
same,absorption maximum,in CCO,396 nm
same,absorption maximum,in CCOC(C)=O,391 nm
same,absorption maximum,in CCOCC,390 nm
same,absorption maximum,in CN(C)C=O,402 nm
same,absorption maximum,in CO,397 nm
same,absorption maximum,in CS(C)=O,405 nm
same,absorption maximum,in O,402 nm
same,absorption maximum,in OCC(O)CO,409 nm
CCN1c2ccc(-c3cc(C(F)(F)F)[nH]n3)cc2Sc2cc(-c3cc(C(F)(F)F)[nH]n3)ccc21,absorption maximum,in C1CCOC1,336 nm
same,absorption maximum,in CC#N,336 nm
same,absorption maximum,in CN(C)C=O,336 nm
same,absorption maximum,in ClCCl,334 nm
same,absorption maximum,in c1ccccc1,336 nm
N#Cc1ccc(-c2ccc(C3=CCCCC3)s2)s1,absorption maximum,in C1CCOC1,366 nm
same,absorption maximum,in CC#N,366 nm
same,absorption maximum,in CCCCCC,366 nm
same,absorption maximum,in CCO,366 nm
same,absorption maximum,in OCCOCCO,366 nm
same,absorption maximum,in c1ccncc1,369 nm
C[Si](C)(C)C#Cc1cc2ccc3cc(C#C[Si](C)(C)C)cc4ccc(c1)c2c34,absorption maximum,in Cc1ccccc1,407 nm
Cc1cc(-c2ccc(N(c3ccccc3)c3ccccc3)cc2)c2nsnc2c1-c1ccc(C(C)(C)C)cc1,absorption maximum,in ClCCl,418 nm
CN(C)c1ccc(/C=C/c2ccc(-c3nc(C#N)c(C#N)n3C)cc2)cc1,absorption maximum,in C1CCCCC1,376 nm
same,absorption maximum,in CC#N,380 nm
same,absorption maximum,in CO,378 nm
same,absorption maximum,in ClC(Cl)Cl,383 nm
CCCCCCCCN1c2ccc(C#Cc3cc(C(F)(F)F)cc(C(F)(F)F)c3)cc2Sc2cc(C=O)ccc21,absorption maximum,in C1CCOC1,382 nm
same,absorption maximum,in CC#N,386 nm
same,absorption maximum,in CCCCCC,372 nm
same,absorption maximum,in CO,366 nm
same,absorption maximum,in CS(C)=O,396 nm
same,absorption maximum,in Cc1ccccc1,381.01 nm
same,absorption maximum,in ClC(Cl)Cl,386 nm
O=C1C2=C3c4sccc4C=CN3C(=O)C2=C2c3sccc3C=CN12,absorption maximum,in CN(C)C=O,605 nm
same,absorption maximum,in ClC(Cl)Cl,605 nm
CC(=O)c1c(N[C@@H](CS)C(=O)O)c2ccc(N(C)C)cc2oc1=O,absorption maximum,in ClCCl,372 nm
CN(C)c1ccc(C#Cc2ccc3ccc4ccc(C#Cc5ccc(N(C)C)cc5)c5ccc2c3c45)cc1,absorption maximum,in C1COCCO1,429 nm
same,absorption maximum,in CC(C)=O,431 nm
same,absorption maximum,in CCCCCC,421 nm
same,absorption maximum,in CCCCCCO,429 nm
same,absorption maximum,in CCO,426 nm
same,absorption maximum,in CCOC(C)=O,428 nm
same,absorption maximum,in CO,427 nm
same,absorption maximum,in Cc1ccccc1,429 nm
same,absorption maximum,in ClCCl,429 nm
CCOC(=O)c1c2c3c(ccc(F)c3c3cc4c(cc13)[Si](C)(C)O[Si]4(C)C)N(C)C2=O,absorption maximum,in CC#N,380 nm
CCCCCCCCCCOc1cc(OCCCCCCCCCC)cc(C2=C3C(C)=CC(/C=C/c4ccc(OC)cc4)=[N+]3[B-](F)(F)n3c(/C=C/c4ccc(OC)cc4)cc(C=Cc4ccc(OC)cc4)c32)c1,absorption maximum,in ClC(Cl)Cl,665 nm
Cc1cccc(C)c1-c1cc2c(C)c3c4cc5nc6cc7c(cc6nc5cc4c3c(C)c2cc1-c1c(C)cccc1C)c1c(C)c2cc(-c3c(C)cccc3C)c(-c3c(C)cccc3C)cc2c(C)c71,absorption maximum,in ClC(Cl)Cl,503 nm
CC(C)(C)c1ccc(-c2cc(-c3ccc(-c4cc(-c5ccc(C(C)(C)C)cc5)c(C#N)s4)s3)sc2C#N)cc1,absorption maximum,in ClCCl,392 nm
